Patent US20070270434A1, “SULFONYL-SUBSTITUTED BICYCLIC COMPOUNDS AS MODULATORS OF PPAR” (KALYPSYS, INC., priority 2006, published 2007)

Key:
Assay type in all cases: cell-based, murine and human
Settings in all cases: 20-24 hours
[1] = biological target: T1, PPAR-alpha ligand binding domain fused to GAL4 DNA binding domain (UniProt Q07869); assay: Transient transfection transactivation assay in CV-1 cells, PPAR-alpha (GAL4 chimera, luciferase reporter)
T1 sequence (Q07869 1-468): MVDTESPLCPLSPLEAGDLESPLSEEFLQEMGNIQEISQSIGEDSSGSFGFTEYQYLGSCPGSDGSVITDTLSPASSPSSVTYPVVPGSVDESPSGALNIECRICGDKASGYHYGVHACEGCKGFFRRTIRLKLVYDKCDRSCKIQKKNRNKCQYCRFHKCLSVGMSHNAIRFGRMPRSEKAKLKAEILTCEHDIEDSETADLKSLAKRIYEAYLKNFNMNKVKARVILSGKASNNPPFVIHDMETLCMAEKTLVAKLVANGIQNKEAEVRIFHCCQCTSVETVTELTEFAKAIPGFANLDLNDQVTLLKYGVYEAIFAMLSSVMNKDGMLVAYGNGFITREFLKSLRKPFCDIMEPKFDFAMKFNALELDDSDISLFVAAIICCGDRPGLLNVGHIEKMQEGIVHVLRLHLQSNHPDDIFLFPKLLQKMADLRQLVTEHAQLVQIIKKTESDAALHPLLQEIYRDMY
Description: (§1) Compounds may be screened for functional potency in transient transfection assays in CV-1 cells for their ability to activate the PPAR subtypes (transactivation assay). A previously established chimeric receptor system was utilized to allow comparison of the relative transcriptional activity of the receptor subtypes on the same synthetic response element and to prevent endogenous receptor activation from complicating the interpretation of results. See, for example, Lehmann, J. M.; Moore, L. B.; Smith-Oliver, T. A; Wilkinson, W. O.; Willson, T. M.; Kliewer, S. A., An antidiabetic thiazolidinedione is a high affinity ligand for peroxisome proliferator-activated receptor […], J. Biol. Chem., 1995, 270, 12953-6. The ligand binding domains for murine and human PPAR-alpha, PPAR-gamma, and PPAR-delta are each fused to the yeast transcription factor GAL4 DNA binding domain. CV-1 cells were transiently transfected with expression vectors for the respective PPAR chimera along with a reporter construct containing four or five copies of the GAL4 DNA binding site driving expression of luciferase. After 8-16 h, the cells are replated into multi-well assay plates and the media is exchanged to phenol-red free DME medium supplemented with 5% delipidated calf serum. 4 hours after replating, cells were treated with either compounds or 1% DMSO for 20-24 hours. Luciferase activity was then assayed with Britelite (Perkin Elmer) following the manufacturer's protocol and measured with either the Perkin Elmer Viewlux or Molecular Devices Acquest (see, for example, Kliewer, S. A., et. al. Cell 1995, 83, 813-819). Rosiglitazone is used as a positive control in the PPARγ assay. Wy-14643 and GW7647 are used as positive controls in the PPARα assay. GW501516 is used as the positive control in the PPARδ assay.

[2] = biological target: T2, PPAR-delta ligand binding domain fused to GAL4 DNA binding domain (UniProt Q03181); assay: Transient transfection transactivation assay in CV-1 cells, PPAR-delta (GAL4 chimera, luciferase reporter)
T2 sequence (Q03181 1-441): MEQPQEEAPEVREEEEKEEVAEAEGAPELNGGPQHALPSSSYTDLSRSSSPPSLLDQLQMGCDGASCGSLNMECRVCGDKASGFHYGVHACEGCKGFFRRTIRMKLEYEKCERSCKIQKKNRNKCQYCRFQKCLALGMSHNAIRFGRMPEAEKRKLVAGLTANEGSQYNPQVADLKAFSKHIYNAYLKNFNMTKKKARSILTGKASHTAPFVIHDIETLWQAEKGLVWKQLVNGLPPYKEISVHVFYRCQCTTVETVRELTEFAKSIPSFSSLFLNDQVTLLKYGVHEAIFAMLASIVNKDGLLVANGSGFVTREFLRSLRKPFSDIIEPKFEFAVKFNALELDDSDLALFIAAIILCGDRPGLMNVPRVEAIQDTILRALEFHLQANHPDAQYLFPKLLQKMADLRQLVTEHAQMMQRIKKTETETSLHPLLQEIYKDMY
Description: as §1

[3] = biological target: T3, PPAR-gamma ligand binding domain fused to GAL4 DNA binding domain (UniProt P37231); assay: Transient transfection transactivation assay in CV-1 cells, PPAR-gamma (GAL4 chimera, luciferase reporter)
T3 sequence (P37231 1-505): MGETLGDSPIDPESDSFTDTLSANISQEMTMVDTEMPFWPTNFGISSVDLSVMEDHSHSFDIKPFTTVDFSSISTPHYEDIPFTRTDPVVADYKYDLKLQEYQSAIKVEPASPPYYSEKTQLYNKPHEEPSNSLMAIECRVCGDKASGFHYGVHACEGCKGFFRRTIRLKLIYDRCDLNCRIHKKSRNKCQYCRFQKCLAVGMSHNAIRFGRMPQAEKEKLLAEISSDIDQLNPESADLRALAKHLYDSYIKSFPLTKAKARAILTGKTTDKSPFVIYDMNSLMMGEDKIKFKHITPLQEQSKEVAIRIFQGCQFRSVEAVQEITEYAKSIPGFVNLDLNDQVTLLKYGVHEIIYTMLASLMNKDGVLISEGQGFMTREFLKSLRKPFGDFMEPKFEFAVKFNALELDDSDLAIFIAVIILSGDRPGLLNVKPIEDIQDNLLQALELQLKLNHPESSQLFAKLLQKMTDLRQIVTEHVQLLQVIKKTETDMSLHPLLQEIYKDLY
Description: as §1

| SMILES | EC50 [1] [µM] | EC50 [2] [µM] | EC50 [3] [µM] |
| --- | --- | --- | --- |
| C[C@@H]1CN(CCc2ccc(OC(F)(F)F)cc2)C[C@H](C)N1S(=O)(=O)c1cccc2c1CC(C(=O)O)C2 (mixture of isomers) [Example 12A, 4-(cis-2,6-Dimethyl-4-(4-(trifluoromethoxy)phenethyl)piperazin-1-ylsulfonyl)-2,3-dihydro-1H-indene-2-carboxylic acid] | > 100 | < 5 | > 100 |
| C[C@@H]1CN(CCc2ccc(C(F)(F)F)cc2)C[C@H](C)N1S(=O)(=O)c1cccc2c1CC(C(=O)O)C2 (mixture of isomers) [Example 14A, 4-(cis-2,6-Dimethyl-4-(4-(trifluoromethyl)phenethyl)piperazin-1-ylsulfonyl)-2,3-dihydro-1H-indene-2-carboxylic acid] | > 100 | < 5 | > 100 |
| C[C@@H]1CN(Cc2ccc(C(F)(F)F)c(F)c2)C[C@H](C)N1S(=O)(=O)c1cccc2c1CC(C(=O)O)C2 (stereo partly drawn) [Example 1, 4-(4-(3-Fluoro-4-(trifluoromethyl)benzyl)-cis-2,6-dimethylpiperazin-1-ylsulfonyl)-2,3-dihydro-1H-indene-2-carboxylic acid] | > 100 | < 5 | > 100 |
| O=C(O)C1Cc2cccc(S(=O)(=O)N3CCN(Cc4cccc(OC(F)(F)F)c4)CC3)c2C1 (stereo not drawn) [Example 2] | > 100 | < 5 | < 5 |
| C[C@@H]1CN(Cc2cccc(OC(F)(F)F)c2)C[C@H](C)N1S(=O)(=O)c1cccc2c1CC(C(=O)O)C2 (stereo partly drawn) [Example 3, 4-[cis-2,6-Dimethyl-4-(3-(trifluoromethoxy)benzyl)piperazine-1-sulfonyl]-2,3-dihydro-1H-indene-2 carboxylic acid] | > 100 | < 5 | 5 to 100 |
| C[C@@H]1CN(Cc2ccc(OC(F)(F)F)c(Cl)c2)C[C@H](C)N1S(=O)(=O)c1cccc2c1CC(C(=O)O)C2 (stereo partly drawn) [Example 4, 4-(4-(3-Chloro-4-(trifluoromethoxy)benzyl)-cis-2,6-dimethylpiperazin-1-ylsulfonyl)2,3-dihydro-1H-indene-2-carboxylic acid] | 5 to 100 | < 5 | 5 to 100 |
| C[C@@H]1CN(Cc2ccc(OC(F)(F)F)c(F)c2)C[C@H](C)N1S(=O)(=O)c1cccc2c1CC(C(=O)O)C2 (stereo partly drawn) [Example 5] | 5 to 100 | < 5 | 5 to 100 |
| C[C@@H]1CN(Cc2ccc(SC(F)(F)F)cc2)C[C@H](C)N1S(=O)(=O)c1cccc2c1CC(C(=O)O)C2 (stereo partly drawn) [Example 6, 4-(cis-2,6-Dimethyl-4-(4-(trifluoromethylthio)benzyl)piperazin-1-ylsulfonyl)-2,3-dihydro-1H-indene-2-carboxylic acid] | 5 to 100 | < 5 | 5 to 100 |
| C[C@@H]1CN(C(=O)Cc2ccc(OC(F)(F)F)cc2)C[C@H](C)N1S(=O)(=O)c1cccc2c1CC(C(=O)O)C2 (stereo partly drawn) [Example 7, 4-(cis-2,6-Dimethyl-4-(2-(4-(trifluoromethoxy)phenyl)acetyl)piperazin-1-ylsulfonyl)-2,3-dihydro-1H-indene-2-carboxylic acid] | > 100 | < 5 | > 100 |
| C[C@@H]1CN(C(=O)CCc2ccc(OC(F)(F)F)cc2)C[C@H](C)N1S(=O)(=O)c1cccc2c1CC(C(=O)O)C2 (stereo partly drawn) [Example 8, 4-(cis-2,6-Dimethyl-4-(3-(4-(trifluoromethoxy)phenyl)propanoyl)piperazin-1-ylsulfonyl)-2,3-dihydro-1H-indene-2-carboxylic acid] | > 100 | < 5 | > 100 |
| C[C@@H]1CN(C(=O)c2ccc(OC(F)(F)F)cc2)C[C@H](C)N1S(=O)(=O)c1cccc2c1CC(C(=O)O)C2 (stereo partly drawn) [Example 9, 4-(cis-2,6-Dimethyl-4-(4-(trifluoromethoxy)benzoyl)piperazin-1-ylsulfonyl)-2,3-dihydro-1H-indene-2-carboxylic acid] | > 100 | 5 to 100 | > 100 |
| O=C(O)C1Cc2cccc(S(=O)(=O)N3CCN(S(=O)(=O)c4ccc(OC(F)(F)F)cc4)CC3)c2C1 (stereo not drawn) [Example 10, 4-(4-(4-(Trifluoromethoxy)phenylsulfonyl)piperazin-1-ylsulfonyl)-2,3-dihydro-1H-indene-2-carboxylic acid] | > 100 | 5 to 100 | 5 to 100 |
| C[C@@H]1CN(S(=O)(=O)c2ccc(OC(F)(F)F)cc2)C[C@H](C)N1S(=O)(=O)c1cccc2c1CC(C(=O)O)C2 (stereo partly drawn) [Example 11, 4-(cis-2,6-Dimethyl-4-(4-(trifluoromethoxy)phenylsulfonyl)piperazin-1-ylsulfonyl)-2,3-dihydro-1H-indene-2-carboxylic acid] | > 100 | < 5 | 5 to 100 |
| C[C@@H]1CN(C(=O)Cc2ccc(C(F)(F)F)cc2)C[C@H](C)N1S(=O)(=O)c1cccc2c1CC(C(=O)O)C2 (stereo partly drawn) [Example 13, 4-(cis-2,6-Dimethyl-4-(2-(4-(trifluoromethyl)phenyl)acetyl)piperazin-1-ylsulfonyl)-2,3-dihydro-1H-indene-2-carboxylic acid] | > 100 | 5 to 100 | > 100 |
| O=C(O)C1Cc2cccc(S(=O)(=O)N3CCN(CCc4ccc(OC(F)(F)F)cc4)CC3)c2C1 (stereo not drawn) [Example 15, 4-(4-(4-(Trifluoromethoxy)phenethyl)piperazin-1-ylsulfonyl)-2,3-dihydro-1H-indene-2-carboxylic acid] | 5 to 100 | < 5 | 5 to 100 |
| O=C(O)C1Cc2cccc(S(=O)(=O)N3CCN(C(=O)CCc4ccc(OC(F)(F)F)cc4)CC3)c2C1 (stereo not drawn) [Example 16, 4-(4-(3-(4-(Trifluoromethoxy)phenyl)propanoyl)piperazin-1-ylsulfonyl)-2,3-dihydro-1H-indene-2-carboxylic acid] | > 100 | 5 to 100 | > 100 |
| C[C@@H]1CN(CCCc2ccc(OC(F)(F)F)cc2)C[C@H](C)N1S(=O)(=O)c1cccc2c1CC(C(=O)O)C2 (stereo partly drawn) [Example 17, 4-(cis-2,6-dimethyl-4-(3-(4-(trifluoromethoxy)phenyl)propyl)piperazin-1-ylsulfonyl)-2,3-dihydro-1H-indene-2-carboxylic acid] | > 100 | < 5 | 5 to 100 |
| O=C(O)C1Cc2cccc(S(=O)(=O)N3CCN(C(=O)c4ccc(OC(F)(F)F)cc4)CC3)c2C1 (stereo not drawn) [Example 18, 4-(4-(4-(trifluoromethoxy)benzoyl)piperazin-1-ylsulfonyl)-2,3-dihydro-1H-indene-2-carboxylic acid] | > 100 | 5 to 100 | > 100 |
